{"source": "paper PMC10945556", "about": "“Design, Synthesis, and Antifungal Activity of 3-Substituted-2(5H)-Oxaboroles” (ACS Medicinal Chemistry Letters, 2024)"}
{"test_system": "E. coli", "test": "MIC, microbroth dilution", "type": "cell-based, Escherichia coli", "conditions": "not given", "units": {"MIC EC": "µg/mL"}}
{"smiles": "OB1OCC=C1c1ccc(Br)cc1", "note": "[Compound 6h]", "MIC EC": "21 ± 4"}
{"test_system": "E. coli", "test": "MIC, microbroth dilution", "type": "cell-based, Escherichia coli", "conditions": "Escherichia coli", "units": {"MIC": "µg/mL"}}
{"smiles": "OB1OCC=C1c1ccc2occc2c1", "note": "[Compound 6r]", "MIC": "> 50"}
{"smiles": "OB1OCC=C1c1ccc2ccccc2c1", "note": "[Compound 6q]", "MIC": "> 50"}
{"smiles": "OB1OCC=C1c1ccc(Br)cc1", "note": "[Compound 6h]", "MIC": "20 to 50"}
{"test_system": "E. coli", "test": "MIC, microbroth dilution", "type": "cell-based, Escherichia coli", "conditions": "Escherichia coli, value in parentheses", "units": {"MIC": "µM"}}
{"smiles": "OB1OCC=C1c1ccc2occc2c1", "note": "[Compound 6r]", "MIC": "> 250"}
{"smiles": "OB1OCC=C1c1ccc2ccccc2c1", "note": "[Compound 6q]", "MIC": "> 238"}
{"smiles": "OB1OCC=C1c1ccc(Br)cc1", "note": "[Compound 6h]", "MIC": 88.2}
{"test_system": "A. flavus", "test": "MIC, dose-dependent solid media assay", "type": "cell-based, Aspergillus flavus", "conditions": "Aspergillus flavus", "units": {"MIC": "µg/mL"}}
{"smiles": "OB1OCC=C1c1ccc2occc2c1", "note": "[Compound 6r]", "MIC": 50}
{"smiles": "OB1OCC=C1c1ccc2ccccc2c1", "note": "[Compound 6q]", "MIC": "> 50"}
{"smiles": "OB1OCC=C1c1ccc(Br)cc1", "note": "[Compound 6h]", "MIC": "33 ± 8"}
{"test_system": "A. flavus", "test": "MIC, dose-dependent solid media assay", "type": "cell-based, Aspergillus flavus", "conditions": "Aspergillus flavus, value in parentheses", "units": {"MIC": "µM"}}
{"smiles": "OB1OCC=C1c1ccc2occc2c1", "note": "[Compound 6r]", "MIC": 250}
{"smiles": "OB1OCC=C1c1ccc2ccccc2c1", "note": "[Compound 6q]", "MIC": "> 238"}
{"smiles": "OB1OCC=C1c1ccc(Br)cc1", "note": "[Compound 6h]", "MIC": 139}
{"test_system": "B. cereus", "test": "MIC, microbroth dilution", "type": "cell-based, Bacillus cereus", "conditions": "Bacillus cereus", "units": {"MIC": "µg/mL"}}
{"smiles": "OB1OCC=C1c1ccc2occc2c1", "note": "[Compound 6r]", "MIC": "> 50"}
{"smiles": "OB1OCC=C1c1ccc2ccccc2c1", "note": "[Compound 6q]", "MIC": "> 50"}
{"smiles": "OB1OCC=C1c1ccc(Br)cc1", "note": "[Compound 6h]", "MIC": "> 50"}
{"test_system": "B. cereus", "test": "MIC, microbroth dilution", "type": "cell-based, Bacillus cereus", "conditions": "Bacillus cereus, value in parentheses", "units": {"MIC": "µM"}}
{"smiles": "OB1OCC=C1c1ccc2occc2c1", "note": "[Compound 6r]", "MIC": "> 250"}
{"smiles": "OB1OCC=C1c1ccc2ccccc2c1", "note": "[Compound 6q]", "MIC": "> 238"}
{"smiles": "OB1OCC=C1c1ccc(Br)cc1", "note": "[Compound 6h]", "MIC": "> 210"}
{"test_system": "C. albicans", "test": "MIC, microbroth dilution", "type": "cell-based, Candida albicans", "conditions": "Candida albicans", "units": {"MIC": "µg/mL"}}
{"smiles": "OB1OCC=C1c1ccc2occc2c1", "note": "[Compound 6r]", "MIC": "> 50"}
{"smiles": "OB1OCC=C1c1ccc2ccccc2c1", "note": "[Compound 6q]", "MIC": "> 50"}
{"smiles": "OB1OCC=C1c1ccc(Br)cc1", "note": "[Compound 6h]", "MIC": "> 50"}
{"test_system": "C. albicans", "test": "MIC, microbroth dilution", "type": "cell-based, Candida albicans", "conditions": "Candida albicans, value in parentheses", "units": {"MIC": "µM"}}
{"smiles": "OB1OCC=C1c1ccc2occc2c1", "note": "[Compound 6r]", "MIC": "> 250"}
{"smiles": "OB1OCC=C1c1ccc2ccccc2c1", "note": "[Compound 6q]", "MIC": "> 238"}
{"smiles": "OB1OCC=C1c1ccc(Br)cc1", "note": "[Compound 6h]", "MIC": "> 210"}
{"test_system": "S. cerevisiae", "test": "MIC, microbroth dilution", "type": "cell-based, Saccharomyces cerevisiae", "conditions": "Saccharomyces cerevisiae", "units": {"MIC": "µg/mL"}}
{"smiles": "OB1OCC=C1c1ccc2occc2c1", "note": "[Compound 6r]", "MIC": "5.2 ± 1"}
{"smiles": "OB1OCC=C1c1ccc2ccccc2c1", "note": "[Compound 6q]", "MIC": "> 50"}
{"smiles": "OB1OCC=C1c1ccc(Br)cc1", "note": "[Compound 6h]", "MIC": 12.5}
{"test_system": "S. cerevisiae", "test": "MIC, microbroth dilution", "type": "cell-based, Saccharomyces cerevisiae", "conditions": "Saccharomyces cerevisiae, value in parentheses", "units": {"MIC": "µM"}}
{"smiles": "OB1OCC=C1c1ccc2occc2c1", "note": "[Compound 6r]", "MIC": 26}
{"smiles": "OB1OCC=C1c1ccc2ccccc2c1", "note": "[Compound 6q]", "MIC": "> 238"}
{"smiles": "OB1OCC=C1c1ccc(Br)cc1", "note": "[Compound 6h]", "MIC": 52.5}
{"test_system": "Methicillin resistant Staphylococcus aureus", "test": "MIC, microbroth dilution", "type": "cell-based", "conditions": "Staphylococcus aureus, S. aureus (MRSA)", "units": {"MIC": "µg/mL"}}
{"smiles": "OB1OCC=C1c1ccc2occc2c1", "note": "[Compound 6r]", "MIC": "> 50"}
{"smiles": "OB1OCC=C1c1ccc2ccccc2c1", "note": "[Compound 6q]", "MIC": "> 50"}
{"smiles": "OB1OCC=C1c1ccc(Br)cc1", "note": "[Compound 6h]", "MIC": "> 50"}
{"test_system": "Methicillin resistant Staphylococcus aureus", "test": "MIC, microbroth dilution", "type": "cell-based", "conditions": "Staphylococcus aureus, S. aureus (MRSA), value in parentheses", "units": {"MIC": "µM"}}
{"smiles": "OB1OCC=C1c1ccc2occc2c1", "note": "[Compound 6r]", "MIC": "> 250"}
{"smiles": "OB1OCC=C1c1ccc2ccccc2c1", "note": "[Compound 6q]", "MIC": "> 238"}
{"smiles": "OB1OCC=C1c1ccc(Br)cc1", "note": "[Compound 6h]", "MIC": "> 210"}
{"test_system": "E. coli", "test": "Growth inhibition screen in liquid medium", "type": "cell-based, Escherichia coli", "conditions": "screen at 50 and 12.5 μg/mL", "excerpt": "These included four bacterial pathogens [Bacillus cereus (Gram-positive), Methicillin resistant Staphylococcus aureus (Gram-positive), Pseudomonas aeruginosa (Gram-negative), and Escherichia coli (Gram-negative)], a fungal pathogen (Candida albicans), and a yeast (Saccharomyces cerevisiae). […] Commercially available tavaborole, cycloheximide, and nystatin were also screened as benchmarks. […] In addition, the 3-substituted oxaboroles were screened in a dose-dependent manner on solid media against three spore-forming fungal pathogens: Trichophyton mentagrophytes, Penicillium chrysogenum, and Aspergillus flavus (Figures 2B and S152–S192). The compounds could not be screened for growth inhibition in liquid media against these pathogens due to clumping of the mycelia, which impeded the absorbance readings."}
{"smiles": "OB1OCC=C1c1ccc(Br)cc1", "note": "[Compound 6h]", "growth inhibition of E. coli": "inhibited the growth"}
{"test_system": "P. aeruginosa", "test": "MIC, microbroth dilution", "type": "cell-based, Pseudomonas aeruginosa", "conditions": "Pseudomonas aeruginosa", "units": {"MIC": "µg/mL"}}
{"smiles": "OB1OCC=C1c1ccc2occc2c1", "note": "[Compound 6r]", "MIC": "> 50"}
{"smiles": "OB1OCC=C1c1ccc2ccccc2c1", "note": "[Compound 6q]", "MIC": "> 50"}
{"smiles": "OB1OCC=C1c1ccc(Br)cc1", "note": "[Compound 6h]", "MIC": "> 50"}
{"test_system": "P. aeruginosa", "test": "MIC, microbroth dilution", "type": "cell-based, Pseudomonas aeruginosa", "conditions": "Pseudomonas aeruginosa, value in parentheses", "units": {"MIC": "µM"}}
{"smiles": "OB1OCC=C1c1ccc2occc2c1", "note": "[Compound 6r]", "MIC": "> 250"}
{"smiles": "OB1OCC=C1c1ccc2ccccc2c1", "note": "[Compound 6q]", "MIC": "> 238"}
{"smiles": "OB1OCC=C1c1ccc(Br)cc1", "note": "[Compound 6h]", "MIC": "> 210"}
{"test_system": "rat myoblast cells (H9c2)", "test": "Cell viability assay against H9c2 cell line", "type": "cell-based", "conditions": "concentrations up to 100 μM, 24 h", "procedure": "(§1) In general, very little growth inhibition was observed against either Gram-positive or Gram-negative bacterial pathogens. […] The SAR for the antibacterial is dissimilar to that observed for the antifungal properties.\n(§2) Figure 3 (A) Cell viability assay against H9c2 cell line at 100 μM for 24 h (normalized to PBS no treatment), (B) Hemolytic assay at 50 and 100 μM for 1 h (normalized to triton X-100 positive control). Error bars in both graphs represent standard error of mean (SEM) of replicates (n = 3)."}
{"smiles": "OB1OCC=C1c1ccc2occc2c1", "note": "[Compound 6r]", "cytotoxic effects against rat myoblast cells (H9c2)": "none"}
{"smiles": "OB1OCC=C1c1ccc2ccccc2c1", "note": "[Compound 6q]", "cytotoxic effects against rat myoblast cells (H9c2)": "none"}
{"smiles": "OB1OCC=C1c1ccc(Br)cc1", "note": "[Compound 6h]", "cytotoxic effects against rat myoblast cells (H9c2)": "none"}
{"test_system": "P. chrysogenum", "test": "MIC, dose-dependent solid media assay", "type": "cell-based, Penicillium chrysogenum", "conditions": "Penicillium chrysogenum", "units": {"MIC": "µg/mL"}}
{"smiles": "OB1OCC=C1c1ccc2occc2c1", "note": "[Compound 6r]", "MIC": 25}
{"smiles": "OB1OCC=C1c1ccc2ccccc2c1", "note": "[Compound 6q]", "MIC": 12.5}
{"smiles": "OB1OCC=C1c1ccc(Br)cc1", "note": "[Compound 6h]", "MIC": 12.5}
{"test_system": "P. chrysogenum", "test": "MIC, dose-dependent solid media assay", "type": "cell-based, Penicillium chrysogenum", "conditions": "Penicillium chrysogenum, value in parentheses", "units": {"MIC": "µM"}}
{"smiles": "OB1OCC=C1c1ccc2occc2c1", "note": "[Compound 6r]", "MIC": 125}
{"smiles": "OB1OCC=C1c1ccc2ccccc2c1", "note": "[Compound 6q]", "MIC": 59.5}
{"smiles": "OB1OCC=C1c1ccc(Br)cc1", "note": "[Compound 6h]", "MIC": 52.5}
{"test_system": "not listed separately", "test": "Hemolytic assay", "type": "cell-based", "conditions": "50 and 100 μM for 1 h", "procedure": "as §1, §2"}
{"smiles": "OB1OCC=C1c1ccc2occc2c1", "note": "[Compound 6r]", "hemolytic activity": "none possessed hemolytic activity"}
{"smiles": "OB1OCC=C1c1ccc2ccccc2c1", "note": "[Compound 6q]", "hemolytic activity": "none possessed hemolytic activity"}
{"smiles": "OB1OCC=C1c1ccc(Br)cc1", "note": "[Compound 6h]", "hemolytic activity": "none possessed hemolytic activity"}
{"test_system": "T. mentagrophytes", "test": "MIC, dose-dependent solid media assay", "type": "cell-based, Trichophyton mentagrophytes", "conditions": "Trichophyton mentagrophytes", "units": {"MIC": "µg/mL"}}
{"smiles": "OB1OCC=C1c1ccc2occc2c1", "note": "[Compound 6r]", "MIC": 50}
{"smiles": "OB1OCC=C1c1ccc2ccccc2c1", "note": "[Compound 6q]", "MIC": "> 50"}
{"smiles": "OB1OCC=C1c1ccc(Br)cc1", "note": "[Compound 6h]", "MIC": "33 ± 8"}
{"test_system": "T. mentagrophytes", "test": "MIC, dose-dependent solid media assay", "type": "cell-based, Trichophyton mentagrophytes", "conditions": "Trichophyton mentagrophytes, value in parentheses", "units": {"MIC": "µM"}}
{"smiles": "OB1OCC=C1c1ccc2occc2c1", "note": "[Compound 6r]", "MIC": 250}
{"smiles": "OB1OCC=C1c1ccc2ccccc2c1", "note": "[Compound 6q]", "MIC": "> 238"}
{"smiles": "OB1OCC=C1c1ccc(Br)cc1", "note": "[Compound 6h]", "MIC": 139}
